Entries after “also recorded” stand apart in the source; their conditions may differ.
Tests used:
Format in all cases: cell-based, human
VEGFR2 = assay: Phosphorylation of VEGFR2 in HRECs upon VEGF stimulation (immunoblot); conditions: 100 ng/ml VEGF, 20 minutes
Method: (§1) HRECs were seeded at 10^5 cells/well in a 6-well plate and after 24 hours of incubation at 37° C., cells were serum starved in 0.1% serum-EBM-2 for 8 hours. Cells were then treated with the indicated concentrations of SH-11052 (2) for one hour before the addition of 100 ng/ml VEGF. After 20 minutes, cells were lysed in NP-40 Lysis buffer containing 25 mM HEPES pH 7.4, 1% NP-40, 150 mM NaCl, 10% glycerol, 1 mM sodium orthovanadate, 10 mM sodium fluoride, 1 mM sodium pyrophosphate, 1 mM PMSF, 2.5 mg/ml aprotinin, 1 mM pepstatin, and 1 mM leupeptin. Equal amounts of proteins (80 μg), as measured by a Bradford assay, were run on 10% SDS-PAGE, transferred to PVDF membrane, blocked with 5% BSA in TBS-0.05% Tween-20 and immunoblotted with the indicated primary antibodies (1:1000 in 1% BSA in TBS-0.05% Tween-20) overnight at 4° C. After three washes in TBS-0.05% Tween-20, HRP-conjugated secondary antibodies (1:5000 in 5% BSA in TBS-0.05% Tween-20) were applied for one hour at room temperature. After three washes, the protein bands were detected and densitized using ECL Prime western blot detection reagent (GE Life Sciences, Piscataway, N.J., USA) and an XRS gel documentation system running Quantity One software (Bio-Rad). Target protein band intensity was normalized to housekeeping gene α-tubulin. […]

IκB-α = assay: TNF-α-mediated degradation of IκB-α in HRECs (immunoblot); conditions: 20 ng/ml TNF-α, 20 minutes
Method: as §1, with “of 20” for “of 100”, “ng/ml of TNF-α.” for “ng/ml VEGF.”

HUVECs = assay: EdU incorporation (DNA synthesis) in HUVECs; conditions: 24 hours treatment, 10 μM EdU pulse; listed as SH-11052 (2)
Method: In order to confirm the inhibition of cell proliferation, incorporation of 5-ethynyl-2′-deoxyuridine (EdU) into endothelial cells in the presence of SH-11052 (2) was further monitored. Particularly, cells (25,000 per coverslip) were seeded onto coverslips coated with Attachment Factor (Cell Systems, Kirkland, Wash., USA) placed in a 6-well plate and incubated with the indicated concentrations of SH-11052 (2) in EGM-2 for 24 hours at 37° C. and 5% CO2. The cells were then serum starved for 8 hours and the medium was replaced with EGM-2 containing 10 μM EdU. The plate was further incubated for another 8 hours before processing the cells for detection of labeled DNA (according to the manufacturer's instructions for the Click-iT EdU assay kit). Images were taken using an EVOS fluorescence microscope (AMG, Mill Creek, Wash., USA) and the number of DAPI stained and EdU stained cells were counted in six randomly chosen fields using ImageJ software.

## COc1ccc(CC2COc3cc(OC)c(O)c(O)c3C2=O)cc1O (single isomer, unassigned) [Compound 2]
VEGFR2
  phosphorylation of VEGFR2: did not inhibit phosphorylation
IκB-α
  TNF-α-mediated degradation of IκB-α: significantly decreased in a dose dependent manner
HUVECs
  DNA synthesis (EdU incorporation) in HUVECs: blocked EdU incorporation; also recorded: significantly inhibited in a dose dependent manner
